One data set concerns U87. The data set is described as follows: Intracellular GSH, GSH-Glo assay, U87 cells. It is filed as cell-based. The note with it: Homo sapiens, U-87 MG, 48 h, normalized to untreated control. The procedure:
(§1) The cancer cell lines A172, A375, U87 and MCF7 were purchased from American Type Culture Collection (ATCC; Manassas, Va., USA). Cells were cultured in Dulbecco's Modified Eagle's Medium (DMEM) supplemented with 10% fetal bovine serum, 2% v/v L-glutamine, 3.2% v/v non-essential amino acids, antibiotics 2% v/v (penicillin-streptomycin), and 0.02% v/v Plasmocin at 37° C. and 5% CO2.
(§2) xCT expression of cancer cell lines was evaluated by western blotting from protein samples of cell lysates as described in Sleire et al., Oncogene 34: 5951-5959, 2015. Protein concentrations were determined by BCA assay (Thermo Fisher Scientific, USA) followed by SDS PAGE and immunoblotting using rabbit anti-xCT (Thermo Fisher Scientific) and rabbit anti-GAPDH (Abcam, Cambridge, UK) as a loading control. The compounds were dissolved in dimethylsulfoxide (DMSO) (Sigma Aldrich, Germany) and stock concentrations of 100 mM were stored at −20° C. in aliquots. Final concentrations were made in growth medium before adding to the cell monolayers.
(§3) The compounds were evaluated based on the measurement of intracellular Glutathione (GSH) which was performed by the GSH-Glo assay (Promega, Madison, WI, USA, cat #V6912) according to the manufacturer's recommended procedures. 5000 cells per well were seeded in a flat bottomed 96-well plate. After attachment to the well surface, cells were exposed to 250 μM and 500 μM of each compound for 48 h. After that, GSH-Glo reagent was added followed by short incubation and addition of luciferin detection reagent. Bioluminescence was measured using a luminometer (Victor 3 1420 multi-label counter, Perkins Elmer, Waltham, MA, USA). IC50 doses for the compounds SAS, DC10 and DC14 were determined in A172 glioma cells, using the GraphPad Prism v6 software (GraphPad Software, Inc. CA, USA). All measurements were normalized to the untreated control and were performed three times.

The next data set relates to A375. The data set is described as follows: Intracellular GSH, GSH-Glo assay, A375 cells. It is filed as cell-based. The note with it: Homo sapiens, 48 h, normalized to untreated control. The procedure: as §1, §2, §3
Another data set has as its system A375 melanoma cells. The data set is described as follows: Validation of DC10 as a radiosensitizer in vivo, subcutaneous A375 tumours. The arrangement: species or system NOD/Scid mice. As to conditions: DC10+RT: 8 mg DC10 on day 14, 4 Gy radiation at day 15, compared with control, DC10 alone. From the text: (§4) Experiments were approved by the Norwegian Animal Research Authority (Oslo, Norway) in accordance with the Guide for the Care and Use of Laboratory Animals (Institute for Laboratory Animal Research, National Research Council. Washington, D.C.: National Academy Press, 1996). NOD/Scid mice were kept at the animal facility at Department of Biomedicine at the University of Bergen. The animals were provided a standard pellet diet and tap water ad libitum. They were kept in a pathogen free environment at a constant temperature and humidity, and standard 12/12 h light and dark cycle.
In this study 20 NOD/Scid mice were grafted with A375 melanoma cells. The A375 cell line was maintained in incubators at 37° C. and 5% CO2 prior to use in the animal experiment. A375 was cultured in DMEM (Sigma-Aldrich, St-Louis, MO, USA) with the supplement of 10% fetal bovine serum (FBS), 3.2% non-essential amino acids, 100 units/mL Penicillin/Streptomycin, […] L-glutamine (all Lonza, Cologne, Germany). Cells were passaged in vitro in medium sized 75 cm^2 culture flasks. […]
For induction of subcutaneous tumours, 5×10^5 A375 cells were injected in the right flank of 20 NOD/SCID mice, and the animals were randomly assigned to 4 groups with […]. […] Tumour growth data for the treatment groups and different time points were analysed with repeated measures for 2-way Anova analysis.

A further data set has as its system A172 glioma cells. The data set is described as follows: Intracellular GSH, GSH-Glo assay, A172 cells. It is filed as cell-based. The note with it: Homo sapiens, 48 h, normalized to untreated control. The procedure:
as §1, §2, §3

Another data set has as its system MCF7. The data set is described as follows: Intracellular GSH, GSH-Glo assay, MCF7 cells. As to conditions: Homo sapiens, 48 h, normalized to untreated control. It is filed as cell-based. On the procedure: as §1, §2, §3
The nature of data set [1]: Assessment of toxicity associated with DC10 in mice. It is filed as in vivo. As to conditions: 16 mg by oral gavage, NOD/Scid mice, 24 or 48 hours.
Text: as §4
DC10 was dissolved in distilled water and administered as a slurry by oral gavage. 16 mg was administered in a volume of 0.2 ml to each animal. […] Blood was sampled through heart puncture with a 3 ml syringe and 0.75 to 1 ml blood was collected. 250 μl was transferred to EDTA tubes that were tilted 15 times to avoid coagulation. The remaining volumes were transferred to 1.5 ml cryotubes and left to coagulate for 3 minutes before centrifugation at 2200 RCF for 10 minutes. This was followed by transfer of the supernatant to new cryotubes that were kept at −20° C., then thawed immediately prior to analysis at the clinical laboratory at Haukeland University Hospital. Blood collected on EDTA tubes underwent hematological analyses, whereas serum underwent biochemical analyses. Organs were also harvested, fixed on 4% formalin embedded in paraffin, sectioned and stained with hematoxylin and esosin.

Take `O=C(O)c1cc(/C=C/c2ccc(-c3ccccc3)cc2)ccc1O` [DC10, (E)-5-(2-([1,1′-biphenyl]-4-yl)vinyl)-2-hydroxybenzoic acid]: the activity at 250 µM in the data set with U87 (250 μM compound, read-out: Intracellular GSH level U87 250 μM) is 76.1%; in the data set on A375 (A-375, 250 μM compound, read-out: Intracellular GSH level A375 250 μM), 27.6%; in the data set with A172 glioma cells (A 172, 250 μM compound, read-out: Intracellular GSH level A172 250 μM), 10.4%; in the data set on MCF7 (250 μM compound, read-out: Intracellular GSH level MCF7 250 μM) it was 28%. The activity at 500 µM amounted to 7.3% in the data set with U87 (500 μM compound, read-out: Intracellular GSH level U87 500 μM); 3.1% in the data set on A375 (A-375, 500 μM compound, read-out: Intracellular GSH level A375 500 μM); 2.3% in the data set on A172 glioma cells (A 172, 500 μM compound, read-out: Intracellular GSH level A172 500 μM); 10.9% in the data set with MCF7 (500 μM compound, read-out: Intracellular GSH level MCF7 500 μM). Also, the “Tumour volume versus the other groups” value in the data set with A375 melanoma cells is recorded as “significantly smaller”. In addition, the Clinical inspection entry in data set [1] is reported as “did not reveal any signs, symptoms or deficits”. The “Hematological analysis: hemoglobin, thrombocytes and leukocytes” value in data set [1] is listed as “normal”. For the same compound, the “Histopathological examination of organs” value in data set [1] was “did not show evidence of inflammation or other signs of tissue injury”. For the same compound, in data set [1], the “Macroscopic inspection of brain, lungs, heart, intestines, liver, kidneys and spleen” value was “appeared normal”. Besides, the “Biochemical blood analysis: S-Kreatinin, γ-GT, S-ASAT, S-ALAT, Amylase, S-Glukose” value in data set [1] (serum) is “no significant elevation in S-Kreatinin (Kidney function), or shift in γ-GT, S-ASAT, S-ALAT, Amylase and S-Glukose”.

Values taken from patent US12629382B2, “Therapy” (Vestlandets Innovasjonsselskap AS, priority 2019, dated 2026).
